In patent US12281125B2, “Rapamycin derivatives” (NOVARTIS AG, priority 2018, dated 2025):

Experiments:
[1] = system: mTORc1 signaling, pS6 (Ser240/244) in MEF TSCl−/− cells; test: Cell-based assay for rapalog potency (pS6) in MEF TSCl−/− cells; conditions: Mus musculus, 2 hours treatment, average from multiple assays
Method in brief: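 Constitutively mTORc1-active MEF TSC1−/− cells were starved 2 h in glucose/bicarbonate/HEPES DPBS, then exposed 2 h at 37° C to 8-point, 3.16-fold compound dilutions. After fixation, pS6 (Ser240/244) and p4EBP1 (Thr37/46) immunofluorescence was imaged; IC50 (nM) from pS6, averaged over multiple assays.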

FKBP12 = molecular target: T1, FKBP12 (Homo sapiens, UniProt P62942); test: SPR assay, binding affinity to FKBP12; conditions: equilibrium dissociation constant
T1 construct: made in house; host or cells: E. coli
T1 sequence (P62942 whole entry): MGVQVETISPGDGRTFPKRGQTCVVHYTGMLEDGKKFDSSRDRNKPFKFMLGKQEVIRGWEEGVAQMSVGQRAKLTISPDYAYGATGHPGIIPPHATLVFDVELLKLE
Excerpt: N-terminal avi-his6-tagged FKBP fusion proteins were expressed in E. coli and purified with nickel chromatography using standard procedures. Biotinylated his-avi-FKBPs were immobilized on a streptavidin chip using a Biacore 8K (GE Healthcare). […] The single-cycle kinetics data were fit to a 1:1 binding model to measure the association rate ka (1/Ms), the dissociation rate kd (1/s) and the affinity KD (M). […] The single-cycle kinetics data was fit to a 1:1 binding model to measure the association rate ka (1/Ms), the dissociation rate kd (1/s) and the apparent affinity KD (M) for ternary complex formation. The equilibrium dissociation constants (KD) to FKBP12, FKBP51, and FKBP52 are shown below in Table 6.

[2] = Pharmacokinetic profile in rats; type: in vivo; conditions: male, Sprague-Dawley, blood, rat
Protocol: All procedures involving animals were approved by the Institutional Animal Care and Use Committee of the Novartis Institutes for Biomedical Research, Cambridge, Mass., USA. Adult Sprague Dawley (SD) male rats were purchased from Envigo (Indianapolis, USA). Once imported, rats were maintained at the specific pathogen free facilities with controlled temperature and light (22° C., 12-h light/12-h dark cycle: lights on at 0600 h/lights off at 1800 h) and with ad libitum access to food and water. Rats were acclimated for at least 3 days before experiments commenced.
Various organs were collected and frozen in liquid nitrogen. Blood was collected via a tail vein or a cardiac puncture (terminal) and frozen for further pharmacokinetics analyses. All tissues were stored at −80° C. until analyzed.
Concentrations were determined using HPLC/Mass spectrometry.
Compounds were administered to rats aged 7-9 weeks (N=3 per group) p.o. at 3 mg/kg and intravenously (i.v). at 1 mg/kg (FIGS. 3A and 3B).

[3] = system: mTORC1 pathway (S6 phosphorylation) in rat liver; test: Inhibition of mTORc1 pathway in rat liver (p-S6/t-S6 immunoblot); type: in vivo; conditions: single oral dose 1, 3 and 10 mg/kg, liver at 3 hours, compared with vehicle control
Protocol: Rats were given a single oral dose of Compound 2 at 1, 3 or 10 mg/kg, and liver samples were collected at 3 hours following dosing. Rats treated with a vehicle were used as a control. […] GAPDH (glyceraldehyde 3-phosphate dehydrogenase) was used to control for protein loading. […] In the histogram depicted in FIG. 4B, average arbitrary values that indicate p-S6/t-S6 ratios are shown above each bar. X axis represents orally given doses (1, 3, or 10 mg/kg). Y-axis represents arbitrary units. Six rats were used in each experimental group. Data are mean±standard deviation. Data were analyzed with a one way ANOVA followed by Dunnett's multiple comparison tests, where means from all groups were compared to the vehicle treated group. […]. […]
Various organs were collected and frozen in liquid nitrogen. […] All tissues were stored at −80° C. until analyzed.
For protein extraction, snap frozen tissues were lysed in MSD Lysis Buffer (MSD, Rockville, Md.), supplemented with complete EDTA free protease inhibitor and PhosSTOP phosphatase inhibitor tablets (Roche, Manheim, Germany), and centrifuged at 13,000 g for 20 min at 4° C. […] Protein was quantified with BCA protein assay (Thermo Scientific, MA). […] Glyceraldehyde 3-phosphate dehydrogenase (GAPDH) detected with an anti-GAPDH antibody (#5174, Cell Signaling Technologies, MA) was used as a protein loading control. […]

IC50 [1]: 0.11 nM | Kd (FKBP12): 4.8 nM | clearance ([2]; iv, i.v. 1 mg/kg): 13 mL/min/kg | half-life ([2]; iv, i.v. 1 mg/kg, read-out: iv. terminal half-life (converted)): 19 h | bioavailability ([2]; oral, p.o. 3 mg/kg and i.v. 1 mg/kg, solution formulation): 16%
SMILES: CO[C@@H]1C[C@H](C[C@@H](C)[C@@H]2CC[C@H](C)/C=C(\C)[C@@H](O)[C@@H](OC)C(=O)[C@H](C)C[C@H](C)/C=C/C=C/C=C(\C)[C@@H](NS(C)(=O)=O)C[C@@H]3CC[C@@H](C)[C@@](O)(O3)C(=O)C(=O)N3CCCC[C@H]3C(=O)O2)CC[C@H]1O [Compound 2]
de-phosphorylation (inactivation) of S6 in rat livers [3]: significant de-phosphorylation (inactivation) of S6
